Reference: BindingDB's records for doi:10.1016/j.bmc.2004.08.050 (Yamanouchi Pharmaceutical, 2004)

Columns and labels:
Test in all cases: HIV-1 RT Assay
[1] = target: T1, Gag-Pol polyprotein [588-1127,Y768C]/[588-1147,Y768C] (Human immunodeficiency virus 1, UniProt P04585, Y768C)
T1 construct: 588-1127; 588-1147

[2] = target: T2, Gag-Pol polyprotein [588-1027,K690N]/[588-1147,K690N] (Human immunodeficiency virus 1, UniProt P04585, K690N)
T2 construct: 588-1027; 588-1147

[3] = target: T3, Gag-Pol polyprotein [588-1027]/[588-1147] (Human immunodeficiency virus 1, UniProt P04585)
T3 construct: 588-1027; 588-1147

| SMILES | IC50 ([1]; pH 8.4, 37 °C) [µM] | IC50 ([2]; pH 8.4, 37 °C) [µM] | IC50 ([3]; pH 8.4, 37 °C) [µM] | IC50 [1] [µM] | IC50 [2] [µM] | IC50 [3] [µM] |
| --- | --- | --- | --- | --- | --- | --- |
| Cc1s/c(=N\S(=O)(=O)c2cccc([N+](=O)[O-])c2)n(C)c1C [3-nitro-N-[(2Z)-3,4,5-trimethyl-2,3-dihydro-1,3-thiazol-2-ylidene]benzene-1-sulfonamide] | 33 | > 50 | 0.97 | – | – | – |
| Cc1c(C(C)(C)C)s/c(=N\S(=O)(=O)c2cccc([N+](=O)[O-])c2)n1C [3-substituted thiazolidene deriv. 17a] | 0.066 | 13 | 0.27 | – | – | – |
| CC(C)c1s/c(=N\S(=O)(=O)c2cccc([N+](=O)[O-])c2)n(C)c1C(N)=O [5-Isopropyl-3-methyl-2-{[(3-nitrophenyl)sulfonyl]imino}-2,3-dihydro-1,3-thiazole-4-carboxamide] | – | – | – | > 25 | > 50 | 39 |
| COC(=O)c1c(C(C)C)s/c(=N\S(=O)(=O)c2cccc([N+](=O)[O-])c2)n1C [Methyl 5-isopropyl-3-methyl-2-{[(3-nitrophenyl)-sulfonyl]imino}-2,3-dihydro-1,3-thiazole-4-carboxylate] | – | – | – | > 25 | > 50 | > 50 |
| Cc1c(C(C)C)s/c(=N\S(=O)(=O)c2cccc([N+](=O)[O-])c2)n1C [N-(3,4-Dimethyl-5-isopropyl-1,3-thiazol-2(3H)-ylidene)-3-nitrobenzenesulfonamide] | 0.071 | 20 | 0.34 | – | – | – |
| C=Cc1s/c(=N\S(=O)(=O)c2cccc([N+](=O)[O-])c2)n(C)c1C [N-(3,4-Dimethyl-5-vinyl-1,3-thiazol-2(3H)-ylidene)-3-nitrobenzenesulfonamide] | – | – | – | 9.6 | 6.2 | 0.15 |
| CC(C)c1s/c(=N\S(=O)(=O)c2cccc([N+](=O)[O-])c2)n(C)c1C#N [N-(4-Cyano-5-isopropyl-3-methyl-1,3-thiazol-2(3H)-ylidene)-3-nitrobenzenesulfonamide] | – | – | – | 0.64 | > 50 | 0.62 |
| CC(C)Cc1c(C(C)C)s/c(=N\S(=O)(=O)c2cccc([N+](=O)[O-])c2)n1C [N-(4-Isobutyl-5-isopropyl-3-methyl-1,3-thiazol-2(3H)-ylidene)-3-nitrobenzenesulfonamide] | – | – | – | > 25 | > 50 | > 50 |
| Cc1[nH]/c(=N/S(=O)(=O)c2cccc([N+](=O)[O-])c2)sc1C(C)(C)C [N-(5-tert-Butyl-4-methyl-1,3-thiazol-2-yl)-3-nitrobenzenesulfonamide] | 0.47 | 32 | 0.37 | – | – | – |
| Cc1cs/c(=N\S(=O)(=O)c2cccc([N+](=O)[O-])c2)n1C [N-[(2Z)-3,4-dimethyl-2,3-dihydro-1,3-thiazol-2-ylidene]-3-nitrobenzene-1-sulfonamide] | > 50 | > 50 | > 50 | – | – | – |
| CC(C)c1cn(C)/c(=N/S(=O)(=O)c2cccc([N+](=O)[O-])c2)s1 [N-[(2Z)-3-methyl-5-(propan-2-yl)-2,3-dihydro-1,3-thiazol-2-ylidene]-3-nitrobenzene-1-sulfonamide] | – | – | – | 0.7 | > 50 | 0.6 |
| CC(C)c1s/c(=N\S(=O)(=O)c2cccc([N+](=O)[O-])c2)n(C)c1C(F)(F)F [N-[(2Z)-3-methyl-5-(propan-2-yl)-4-(trifluoromethyl)-2,3-dihydro-1,3-thiazol-2-ylidene]-3-nitrobenzene-1-sulfonamide] | – | – | – | 0.26 | 42 | 0.6 |
| CC(=O)c1sc(=NS(=O)(=O)c2cccc([N+](=O)[O-])c2)n(C)c1C [N-[(2Z)-5-acetyl-3,4-dimethyl-2,3-dihydro-1,3-thiazol-2-ylidene]-3-nitrobenzene-1-sulfonamide] | – | – | – | > 50 | > 50 | > 50 |
| CCc1s/c(=N\S(=O)(=O)c2cccc([N+](=O)[O-])c2)n(C)c1C [N-[(2Z)-5-ethyl-3,4-dimethyl-2,3-dihydro-1,3-thiazol-2-ylidene]-3-nitrobenzene-1-sulfonamide] | 0.47 | 6.3 | 0.85 | – | – | – |
| CCn1c(C)c(C(C)(C)C)s/c1=N\S(=O)(=O)c1cccc([N+](=O)[O-])c1 [N-[(2Z)-5-tert-butyl-3-ethyl-4-methyl-2,3-dihydro-1,3-thiazol-2-ylidene]-3-nitrobenzene-1-sulfonamide] | – | – | – | 0.12 | > 50 | 6 |
| CC(C)c1s/c(=N\S(=O)(=O)c2cccc([N+](=O)[O-])c2)n(C)c1Cl [thiazolidenebenzenesulfonamide deriv. 17k] | – | – | – | 0.13 | 6.9 | 0.077 |
